# Data taken from paper PMC8596578, “Structural Basis for The Recognition of Deaminated Nucleobases by An Archaeal DNA Polymerase” (Chembiochem, 2021).
# Target: T1, KOD DNA polymerase (exonuclease deficient mutant D141A, E143A) (Thermococcus kodakarensis, UniProt P77933, D141A/E143A)
# T1 construct: gene pol; exonuclease-deficient polymerase, codon-optimized, pET24a (NdeI/NotI), E. coli BL21(DE3); intein-free mature protein
# Test: X-ray crystal structure of closed ternary complex
# Format: binding
# Conditions: primer/template DNA (21 nt template, with canonical bases in KOD-21nt or uracil at +6 in KOD-U); polymerase active site, Mg2+ and Mn2+; pH 7.5 (KOD-21nt) or 6.5 (KOD-U)
smiles,measurement,value
Nc1ncnc2c1ncn2[C@H]1C[C@H](O)[C@@H](COP(=O)(O)OP(=O)(O)OP(=O)(O)O)O1 [dATP],X-ray crystal structure of closed ternary complex,"closed ternary complex, with dATP and three metal ions"
